Target: T1, Human CaV2.2 channels (Homo sapiens, UniProt Q00975)
T1 construct: expressed in transfected cells; also stably expressing Kir2.3)
Assay: Fluorescent assay for CaV2.2 channels using potassium depolarization to induce channel opening (FLIPR, Fluo 4)
Format: cell-based
Details: 3 μM test compound; 30 mM KCl alternative assay buffer (inactivated channel state); HEK293 cells; read-out: %-Inhib (CaV2.2) @3 μM @30 mM KCl
From the text: In the process, the Ca^2+ influx is quantified in the FLIPR assay with the aid of a Ca^2+-sensitive dye (type Fluo-4, Molecular Probes Europe BV, Leiden, the Netherlands) in a fluorescent imaging plate reader (FLIPR 3, Molecular Devices, Sunnyvale, USA), as described hereinafter.
2. Assay Descriptions and Biological Data: 2.1 Fluorescent Assay for CaV2.2 Channels Using Potassium Depolarization to Induce Channel Opening
Human CaV2.2 channels were stably expressed in HEK293 cells together with alpha2-delta and beta subunits of voltage gated calcium channels. In addition, an inwardly rectifying potassium channel (Kir2.3) was stably expressed in these cells to augment control of the cell membrane potential by the concentration of extracellular potassium ions. Raise of the extracellular potassium concentration leads to depolarization of the membrane potential and thus regulates the voltage dependent state of CaV2.2 channels. For preparation, cells were seeded in black poly-D-lysine coated 96-well plates (Becton Dickinson, Biocoat 4640) in 100 μL medium [500 mL DMEM/F-12 plus Glutamax (Invitrogen 31331-093) plus 5.5 mL MEM NEAA 100× (Invitrogen 11140-035) plus 50 mL FBS decomplemented (Invitrogen 10270-106) plus 200 μg/mL Geneticin (Invitrogen 10131-027) plus 50 μg/mL Hygromycin B (Invitrogen 10687-010) plus 2 μg/mL Blasticidin (anti-bl5b Invivo-Gen) plus 0.2 μg/mL Puromycin (A 11138-03)] at a cell density of 30.000 cells per well. Plates were incubated at 37° C. (5% CO2) for 20 to 23 h. On the day of experiment medium was discarded and cells were loaded with Fluo 4 by addition of 100 μL of basic assay buffer (10 mM HEPES, 1 mM KCl, 149 mM NaCl, 0.8 mM CaC2, 1.7 mM MgCl2, 10 mM Glucose, 0.1% BSA. pH 7.4) containing 2 μM Fluo 4 (Molecular Probes; F-14201), 0.01% pluronic acid (Molecular Probes; P-6866) and 2.5 mM probenecid (Molecular Probes; P36400). Cells were incubated in the dark at 25° C. for 60 min. Then dye containing buffer was discarded and 100 μL basic (1 mM KCl) or alternative (30 mM KCl) assay buffer was added. The alternative assay buffer contained altered concentrations of KCl (30 mM) and NaCl (120 mM) and was used in order to promote the inactivated channel state. After that 25 μL of basic or alternative assay buffer with or without test compound were added and cells were incubated again in the dark at 25° C. for 15 min. Fluorescence intensity was measured on a FLIPR 3 instrument (Molecular Devices Corp., Sunnyvale, Calif.) with excitation at 480 nm and emission at 535 nm. After continuously reading fluorescence for 30 sec, 50 μL of basic assay buffer containing 210 mM KCl (NaCl omitted) were added for depolarization. Peak fluorescent signal intensity was determined and the amplitude of the peak signal, normalized to base line, was used to measure channel inhibition by test compounds.

T1 sequence (Q00975 whole entry): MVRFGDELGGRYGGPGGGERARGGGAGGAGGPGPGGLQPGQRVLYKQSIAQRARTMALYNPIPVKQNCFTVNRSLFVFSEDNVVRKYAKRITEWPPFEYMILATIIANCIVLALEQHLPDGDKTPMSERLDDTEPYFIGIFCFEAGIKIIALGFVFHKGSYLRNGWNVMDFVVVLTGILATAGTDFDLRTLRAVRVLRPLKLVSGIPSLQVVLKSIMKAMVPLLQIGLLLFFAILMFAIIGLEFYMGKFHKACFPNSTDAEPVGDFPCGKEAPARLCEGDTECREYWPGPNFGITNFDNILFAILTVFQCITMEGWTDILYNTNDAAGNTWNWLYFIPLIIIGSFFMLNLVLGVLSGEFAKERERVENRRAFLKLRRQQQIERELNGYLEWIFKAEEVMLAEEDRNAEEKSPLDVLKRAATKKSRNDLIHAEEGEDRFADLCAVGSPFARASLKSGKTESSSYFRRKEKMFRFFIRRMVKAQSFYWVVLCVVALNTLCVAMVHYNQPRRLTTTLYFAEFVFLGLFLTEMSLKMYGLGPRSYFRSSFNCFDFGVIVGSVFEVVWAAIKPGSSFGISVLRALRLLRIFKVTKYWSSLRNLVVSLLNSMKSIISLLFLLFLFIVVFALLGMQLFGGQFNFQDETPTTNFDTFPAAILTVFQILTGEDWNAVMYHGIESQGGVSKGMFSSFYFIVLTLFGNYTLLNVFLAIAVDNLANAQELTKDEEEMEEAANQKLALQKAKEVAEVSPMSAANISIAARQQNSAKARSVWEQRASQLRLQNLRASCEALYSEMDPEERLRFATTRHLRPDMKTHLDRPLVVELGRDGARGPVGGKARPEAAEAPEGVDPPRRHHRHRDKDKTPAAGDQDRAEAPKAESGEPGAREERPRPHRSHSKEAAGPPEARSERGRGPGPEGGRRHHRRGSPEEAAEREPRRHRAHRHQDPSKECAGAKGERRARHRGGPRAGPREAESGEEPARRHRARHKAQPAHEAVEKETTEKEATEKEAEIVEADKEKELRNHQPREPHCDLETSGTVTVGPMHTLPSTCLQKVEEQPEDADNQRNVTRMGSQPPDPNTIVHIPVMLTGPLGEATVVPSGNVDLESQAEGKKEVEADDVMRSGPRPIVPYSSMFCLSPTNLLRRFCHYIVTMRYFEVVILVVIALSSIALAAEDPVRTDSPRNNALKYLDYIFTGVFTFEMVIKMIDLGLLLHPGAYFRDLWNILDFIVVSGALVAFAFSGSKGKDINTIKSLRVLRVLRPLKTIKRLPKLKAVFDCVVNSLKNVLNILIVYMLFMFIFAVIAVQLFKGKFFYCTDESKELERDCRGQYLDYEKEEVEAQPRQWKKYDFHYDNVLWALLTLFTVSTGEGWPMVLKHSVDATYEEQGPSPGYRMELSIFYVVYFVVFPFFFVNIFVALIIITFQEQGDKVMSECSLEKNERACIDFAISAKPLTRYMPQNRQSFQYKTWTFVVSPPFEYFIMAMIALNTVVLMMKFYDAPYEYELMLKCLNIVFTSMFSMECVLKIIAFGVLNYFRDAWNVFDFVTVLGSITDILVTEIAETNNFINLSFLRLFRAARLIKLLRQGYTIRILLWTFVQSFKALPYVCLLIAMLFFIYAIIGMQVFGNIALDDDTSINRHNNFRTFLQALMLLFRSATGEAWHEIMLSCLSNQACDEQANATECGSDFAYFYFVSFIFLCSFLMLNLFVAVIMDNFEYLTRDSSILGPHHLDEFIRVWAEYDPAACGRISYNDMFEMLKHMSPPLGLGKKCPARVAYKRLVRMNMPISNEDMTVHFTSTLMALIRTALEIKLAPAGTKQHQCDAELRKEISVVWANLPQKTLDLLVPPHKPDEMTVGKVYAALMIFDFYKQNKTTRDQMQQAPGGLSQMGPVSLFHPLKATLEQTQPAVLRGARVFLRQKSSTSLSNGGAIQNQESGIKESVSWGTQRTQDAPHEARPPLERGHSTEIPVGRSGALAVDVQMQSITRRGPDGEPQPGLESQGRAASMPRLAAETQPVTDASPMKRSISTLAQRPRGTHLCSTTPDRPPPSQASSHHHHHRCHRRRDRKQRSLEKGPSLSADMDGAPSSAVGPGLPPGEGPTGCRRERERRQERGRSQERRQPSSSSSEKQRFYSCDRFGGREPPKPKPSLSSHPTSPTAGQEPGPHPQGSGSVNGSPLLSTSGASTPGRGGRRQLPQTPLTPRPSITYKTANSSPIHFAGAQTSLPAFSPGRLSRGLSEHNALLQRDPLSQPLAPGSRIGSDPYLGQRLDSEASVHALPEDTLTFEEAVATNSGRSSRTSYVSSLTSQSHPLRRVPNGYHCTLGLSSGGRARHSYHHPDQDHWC

Compound | inhibition at 3 µM [%]
Cc1c(-c2ccc(Cl)cn2)c(C(=O)NC(C)C)n(Cc2ccccc2)c1C(F)(F)F [Example 53, 1-Benzyl-3-(5-chloro-pyridin-2-yl)-N-isopropyl-4-methyl-5-(trifluoromethyl)-1H-pyrrole-2-carboxylic acid amide] | 75 to 95
Cc1c(-c2ncc(F)cn2)c(C(=O)N(C)CC(C)(C)C)n(Cc2ccccc2)c1C(F)(F)F [Example 33, 1-Benzyl-3-(5-fluoropyrimidin-2-yl)-N,4-dimethyl-N-neopentyl-5-(trifluoromethyl)-1H-pyrrole-2-carboxamide] | > 95
Cc1c(-c2cn[nH]c2)c(C(=O)N(C)CC(C)(C)C)n(Cc2ccccc2)c1C(F)(F)F [Example 09, 1-Benzyl-N,4-dimethyl-N-neopentyl-3-(1H-pyrazol-4-yl)-5-(trifluoromethyl)-1H-pyrrole-2-carboxamide] | 75 to 95
Cc1c(-c2ccn(C)n2)c(C(=O)N(C)C(C)C)n(Cc2ccccc2)c1C(F)(F)F [Example 51, 1-Benzyl-N-isopropyl-N,4-dimethyl-3-(1-methyl-1H-pyrazol-3-yl)-5-(trifluoromethyl)-1H-pyrrole-2-carboxylic acid amide] | 75 to 95
Cc1c(-c2cnccn2)c(C(=O)N2CCOCC2)n(Cc2ccccc2)c1C(F)(F)F [Example 39, (1-Benzyl-4-methyl-3-(pyrazin-2-yl)-5-(trifluoromethyl)-1H-pyrrol-2-yl)(morpholino)methanone] | 40 to 75
Cc1c(-c2ncccn2)c(C(=O)N2CCOCC2)n(Cc2ccccc2)c1C(F)(F)F [Example 40, (1-Benzyl-4-methyl-3-(pyrimidin-2-yl)-5-(trifluoromethyl)-1H-pyrrol-2-yl)(morpholino)methanone] | 40 to 75
